Source: patent publication US20160038438A1, “COMBINATION OF NORDIHYDROGUAIARETIC ACID AND AN AMINOGLYCOSIDE” (HELPERBY THERAPEUTICS LIMITED, priority 2013, published 2016)

Legend:
log phase S. aureus [1] = assay: Chequerboard method, HT013006 (NDGA) with gentamycin, log phase S. aureus; assay type: cell-based, Staphylococcus aureus; conditions: for MIC before combination: drug alone, log phase S. aureus
Description: Log phase growth of S. aureus was carried out as described in the art. HT013006 in combination with gentamycin against log phase S. aureus using chequerboard method The effects of combination were examined by calculating the fractional inhibitory concentration index (FICI) of each combination, as follows: (MIC of drug A, tested in combination)/(MIC of drug A, tested alone)+(MIC of drug B, tested in combination)/(MIC of drug B, tested alone). The interaction of the combination was defined as showing synergy if the FICI was ≦0.5, no interaction if the FICI was >0.5 but <4.0 and antagonism if the FICI was >4.0.

log phase S. aureus [2] = assay: Time kill curve, HT013006 alone and with gentamycin, log phase S. aureus; assay type: cell-based, Staphylococcus aureus
Source text: HT013006 alone and in combination with gentamycin against log phase S. aureus using time kill curve.

[3] = system: log phase methicillin resistant Staphylococcus aureus clinical strain; assay: Time kill, HT013006 with gentamycin, log phase MRSA clinical strain; assay type: cell-based
[4] = system: log phase Staphylococcus aureus gentamycin resistant clinical strain; assay: Time kill, HT013006 with gentamycin, gentamycin resistant clinical strain; assay type: cell-based
Description: • 1. HT013006 at 16 and 8 μg/ml had no activities against log phase MRSA. • 2. […] The minimal concentration of HT013006 was 2 μg/ml when combined with 0.5 and 0.25 μg/ml of gentamycin. • (b) log phase phase Staphylococcus aureus gentamycin resistant clinical strain by time kill (340)

[5] = system: log phase Staphylococcus aureus Oxford strain; assay: Time kill, HT013006 with neomycin, log phase S. aureus Oxford strain; assay type: cell-based
Description: Using the methods described in Example 2, HT013006 was tested in combination with neomycin against log phase Staphylococcus aureus Oxford strain over a time period of 24 hours.

yeast pathogens = conditions: against yeast pathogens; cited from earlier work
enterobacteria = conditions: cited from earlier work
[6] = HT013006 alone at 16, 8, 4 and 2 μg/ml

Molecule: CC(Cc1ccc(O)c(O)c1)C(C)Cc1ccc(O)c(O)c1 (stereo not shown) [HT013006, nordihydroguaiaretic acid]
- MIC of HT013006 in combination (log phase S. aureus [1]; combined with 0.25 μg/ml of gentamycin): 1 µg/mL
- MIC before combination (log phase S. aureus [1]): 64 µg/mL
- activity in time kill (log phase S. aureus [2]; [6]): no activities
- activity in time kill (log phase S. aureus [2]; HT013006 alone at 16 and 8 μg/ml): no activities
- activity in time kill ([3]; HT013006 alone at 16 and 8 μg/ml, log phase MRSA): no activities
- minimal concentration of HT013006 in combination ([3]; combined with 0.5 and 0.25 μg/ml of gentamycin): 2 µg/mL
- activity in time kill [4, 6]: no activities
- minimal concentration of HT013006 which showed enhanced activities ([4]; combined with 4 and 2 μg/ml of gentamycin): 2 µg/mL
- activity in time kill ([5]; HT013006 alone at 16, 8, 4 and 2 μg/ml, 24 hours): no activities
- minimal concentration of HT013006 which showed maximal enhanced effect ([5]; in combination with neomycin): 8 µg/mL
- effect on amphotericin B activity (yeast pathogens): enhancing the effect of amphotericin B

Molecule: Cc1cn([C@H]2C[C@H](N=[N+]=[N-])[C@@H](CO)O2)c(=O)[nH]c1=O [AZT, zidovudine]
- interaction with the aminoglycosides amikacin and gentamycin (enterobacteria; against enterobacteria): additive or synergistic activity
- effect on bacteria (enterobacteria; some enterobacteria): bactericidal effect

Molecule: gentamycin [reference compound]
- MIC of gentamycin in combination (log phase S. aureus [1]; combined with 16 μg/ml of HT013006): 0.0078 µg/mL
- MIC before combination (log phase S. aureus [1]): 0.5 µg/mL
- activity in time kill (log phase S. aureus [2]; gentamycin 0.0625 μg/ml): no activity
- activity in time kill (log phase S. aureus [2]; gentamycin 0.125 μg/ml): inhibition over 8 hours of treatment, then regrowth was seen
- regrowth (log phase S. aureus [2]; gentamycin 0.25 μg/ml): regrowth was seen after 4 hours
- kill (log phase S. aureus [2]; gentamycin 0.25 μg/ml, at 4 hours of incubation): 3 log
- regrowth (log phase S. aureus [2]; gentamycin 0.5 μg/ml): regrowth was seen after 2 hours
- kill (log phase S. aureus [2]; gentamycin 0.5 μg/ml, at 2 hours of incubation): 3.5 log
- activity in time kill ([4]; gentamycin at 4, 2, 1 and 0.5 ug/ml, strain 17): no activities
